In PMC7915026, “Sulfaguanidine Hybrid with Some New Pyridine-2-One Derivatives: Design, Synthesis, and Antimicrobial Activity against Multidrug-Resistant Bacteria as Dual DNA Gyrase and DHFR Inhibitors” (Antibiotics, 2021):
Values after ≈ are worked out from the molar mass of the structure shown. Read-outs that look alike come from different tables or passages of the source.

Legend:
[1] = tested on: F. oxysporum (RCMB 008002); experiment: MIC and MFC determination; assay type: cell-based
E. faecalis ATCC 29212 [2] = experiment: MIC and MBC determination; assay type: cell-based; details: Enterococcus faecalis, ATCC29212, E. faecalis
S. aureus ATCC 29213 [3] = experiment: MIC and MBC determination; assay type: cell-based; details: S. aureus
E. coli ATCC BAA-196 [4] = experiment: Inhibition zone against multidrug-resistant bacteria; assay type: cell-based; details: MDRB E. coli ATCC BAA-196
In short: (§1)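 Agar diffusion; IZ diameter in mm. Positive control: norfloxacin.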

S. aureus ATCC 43300 [5] = experiment: as above; assay type: cell-based; details: MDRB S. aureus ATCC 43300
In short: as §1

[6] = tested on: P. aeruginosa ATCC BAA-2111; experiment: as above; assay type: cell-based; details: MDRB P. aeruginosa ATCC BAA-2111
In short: as §1

S. aureus ATCC 33591 [7] = experiment: as above; assay type: cell-based; details: MDRB S. aureus ATCC 33591
In short: as §1

[8] = molecular target: E. coli DHFR (dihydrofolate reductase) (Escherichia coli, UniProt P0ABQ4); experiment: In vitro DHFR enzymatic assay; assay type: biochemical
E. coli ATCC 25922 [9] = experiment: MIC and MBC determination; assay type: cell-based; details: E. coli
spleen and thymus = experiment: In vivo immunomodulation: immune organ weight and indexes; parameters: Spleen index: unit not given here; details: mice
Description: Both the spleen and thymus have important antibacterial and fungal immune organ responses, and any change in weight, and indexes can reflect the level of immune regulation. Additionally, the relative spleen and thymus indexes are important indices for nonspecific immunity and potential immunomodulatory compounds that increase the spleen and thymus weight. This increase is due to immune cells’ stimulation in the spleen and thymus. […]

S. aureus DNA gyrase = S. aureus DNA gyrase (Staphylococcus aureus, UniProt P0A0K8+P20831); experiment: In vitro DNA gyrase supercoiling enzymatic assay; assay type: biochemical
C. albicans (ATCC 10231) [10] = experiment: MIC and MFC determination; assay type: cell-based
C. albicans (ATCC 10231) [11] = experiment: Inhibition zone, paper disk/agar diffusion; assay type: cell-based; details: Na = no activity
In short: as §1

S. typhi ATCC 6539 = experiment: Inhibition zone, paper disk/agar diffusion; assay type: cell-based; details: S. typhi; Na = no activity
In short: as §1

E. faecalis ATCC 29212 [12] = experiment: Inhibition zone, paper disk/agar diffusion; assay type: cell-based; details: E. faecalis; Na = no activity
In short: as §1

P. aeruginosa ATCC 27853 = experiment: Inhibition zone, paper disk/agar diffusion; assay type: cell-based; details: P. aeruginosa; Na = no activity
In short: as §1

[13] = tested on: F. oxysporum (RCMB 008002); experiment: Inhibition zone, paper disk/agar diffusion; assay type: cell-based; details: Na = no activity
In short: as §1

E. coli ATCC 25922 [14] = experiment: Inhibition zone, paper disk/agar diffusion; assay type: cell-based; details: E. coli; Na = no activity
In short: as §1

S. aureus ATCC 29213 [15] = experiment: Inhibition zone, paper disk/agar diffusion; assay type: cell-based; details: S. aureus; Na = no activity
In short: as §1

MDRB strains = experiment: MIC and MBC, ranges over the MDRB panel; assay type: cell-based; details: four MDRB strains
Description: (§2) Norfloxacin was used as a positive control for the multidrug resistance study.
(§3) The experiment was repeating for three-times.

E. coli ATCC BAA-196 [16] = experiment: MIC and MBC against multidrug-resistant strains; assay type: cell-based; details: E. coli ATCC BAA-196
Description: as §2, §3

S. aureus ATCC 43300 [17] = experiment: MIC and MBC against multidrug-resistant strains; assay type: cell-based; details: Staphylococcus aureus, ATCC43300, S. aureus ATCC 43300
Description: as §2, §3

[18] = tested on: P. aeruginosa ATCC BAA-2111; experiment: MIC and MBC against multidrug-resistant strains; assay type: cell-based; details: P. aeruginosa ATCC BAA-2111
Description: as §2, §3

S. aureus ATCC 33591 [19] = experiment: MIC and MBC against multidrug-resistant strains; assay type: cell-based; details: Staphylococcus aureus, ATCC33591, S. aureus ATCC 33591
Description: as §2, §3

[20] = tested on: CD4+ and CD8+ T lymphocytes; experiment: In vivo T lymphocyte subsets from peripheral blood, flow cytometry; details: mice
Description: Activation of immune cells as CD4^+ and CD8^+ T cells is one possible mechanism of a drug’s immune stimulus activity. An increase in these cells is thought to be a good indicator of an active immune response to infections. So, our work extended to study the effect of the most promising derivatives (2d, 8, and 11) on T lymphocyte subsets (CD4^+ and CD8^+) from peripheral blood, and determined the relative level in model mice that analyzed by flow cytometry after the period of treating.
In vitro intracellular killing activities for the most promising six derivatives 2a, 2b, 2d, 3a, 8, and 11 were performed according to reported methods.

[21] = tested on: Salmonella typhi (S. typhi ATCC 6539); experiment: microbe, parasite or virus in culture; assay type: cell-based; details: Salmonella enterica, Salmonella typhi
B. subtilis ATCC 6633 = experiment: MIC and MBC determination; assay type: cell-based; details: B. subtilis

Chain of E. coli DHFR (dihydrofolate reductase) (P0ABQ4 whole entry): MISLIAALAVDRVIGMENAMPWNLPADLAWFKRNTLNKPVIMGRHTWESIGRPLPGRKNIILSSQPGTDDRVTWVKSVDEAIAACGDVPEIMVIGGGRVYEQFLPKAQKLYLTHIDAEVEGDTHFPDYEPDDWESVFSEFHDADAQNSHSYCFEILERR
Chain of S. aureus DNA gyrase (P20831 whole entry): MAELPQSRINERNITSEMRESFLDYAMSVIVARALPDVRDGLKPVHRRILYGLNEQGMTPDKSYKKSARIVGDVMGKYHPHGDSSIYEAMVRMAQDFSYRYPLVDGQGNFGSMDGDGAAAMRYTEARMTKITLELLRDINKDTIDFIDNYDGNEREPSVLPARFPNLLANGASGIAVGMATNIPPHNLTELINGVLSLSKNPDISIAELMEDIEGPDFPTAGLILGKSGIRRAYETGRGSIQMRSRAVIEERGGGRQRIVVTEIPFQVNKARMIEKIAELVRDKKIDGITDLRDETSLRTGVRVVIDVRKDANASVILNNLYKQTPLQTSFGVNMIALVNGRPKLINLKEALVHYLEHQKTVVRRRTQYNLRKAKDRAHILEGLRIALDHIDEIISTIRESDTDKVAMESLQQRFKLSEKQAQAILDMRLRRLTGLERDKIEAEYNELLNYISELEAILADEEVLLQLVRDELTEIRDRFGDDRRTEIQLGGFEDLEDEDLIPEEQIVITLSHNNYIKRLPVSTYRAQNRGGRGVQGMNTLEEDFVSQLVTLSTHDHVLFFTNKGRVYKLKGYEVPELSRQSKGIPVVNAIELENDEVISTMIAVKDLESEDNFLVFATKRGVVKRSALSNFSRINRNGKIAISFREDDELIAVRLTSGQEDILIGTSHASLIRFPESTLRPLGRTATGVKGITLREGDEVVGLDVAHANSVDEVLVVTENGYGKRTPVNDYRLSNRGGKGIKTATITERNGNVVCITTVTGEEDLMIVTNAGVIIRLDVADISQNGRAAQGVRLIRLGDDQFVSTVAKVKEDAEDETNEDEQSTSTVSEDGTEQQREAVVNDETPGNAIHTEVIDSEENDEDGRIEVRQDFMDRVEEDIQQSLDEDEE
Chain of S. aureus DNA gyrase (P0A0K8 whole entry): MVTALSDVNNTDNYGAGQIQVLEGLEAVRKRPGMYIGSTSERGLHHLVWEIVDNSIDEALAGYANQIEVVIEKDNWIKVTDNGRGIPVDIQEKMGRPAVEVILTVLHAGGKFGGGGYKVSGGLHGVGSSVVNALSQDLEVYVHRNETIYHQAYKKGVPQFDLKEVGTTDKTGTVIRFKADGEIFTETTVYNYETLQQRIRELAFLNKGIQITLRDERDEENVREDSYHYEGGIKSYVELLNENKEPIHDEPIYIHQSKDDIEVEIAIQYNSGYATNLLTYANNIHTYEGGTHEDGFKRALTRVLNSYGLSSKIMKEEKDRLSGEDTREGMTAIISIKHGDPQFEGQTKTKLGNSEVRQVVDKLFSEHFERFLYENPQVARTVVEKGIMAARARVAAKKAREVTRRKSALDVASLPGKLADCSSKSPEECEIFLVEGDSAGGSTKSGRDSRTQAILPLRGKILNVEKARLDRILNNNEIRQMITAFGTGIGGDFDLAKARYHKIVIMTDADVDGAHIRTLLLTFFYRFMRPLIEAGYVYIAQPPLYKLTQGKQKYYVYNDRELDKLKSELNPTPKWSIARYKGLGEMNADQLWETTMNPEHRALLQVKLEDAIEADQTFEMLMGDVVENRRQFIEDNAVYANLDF

Q: Which results are given for `COc1ccc(/C=C(\C#N)C(=O)Nc2ccc(S(=O)(=O)NC(=N)N)cc2)cc1O` [Compound 2d, N-(4-(N-Carbamimidoylsulfamoyl)phenyl)-2-cyano-3-(3-hydroxy-4-methoxyphenyl) acryl-amide]?
A: MFC [1]: 66.84 ± 0.85 µM (≈ 27.8 µg/mL); MFC/MIC [1]: <2; MIC [1]: 37.60 ± 0.25 µM (≈ 15.6 µg/mL); MFC ([1]; Fusarium oxysporum, RCMB008002, read-out: MFC): 66.8 µM (≈ 27.8 µg/mL); MIC ([1]; Fusarium oxysporum, RCMB008002, read-out: MIC): 37.6 µM (≈ 15.6 µg/mL); MBC (E. faecalis ATCC 29212 [2]; read-out: MBC): 15.9 ± 0.58 µM (≈ 6.63 µg/mL); MIC (E. faecalis ATCC 29212 [2]; read-out: MIC): 9.38 ± 0.24 µM (≈ 3.9 µg/mL); MBC (S. aureus ATCC 29213 [3]): 13.40 ± 0.54 µM (≈ 5.57 µg/mL); MIC (S. aureus ATCC 29213 [3]): 13.40 ± 0.98 µM (≈ 5.57 µg/mL); MBC (S. aureus ATCC 29213 [3]; Staphylococcus aureus, ATCC29213, read-out: MBC): 13.4 µM (≈ 5.57 µg/mL); MIC (S. aureus ATCC 29213 [3]; Staphylococcus aureus, ATCC29213, read-out: MIC): 13.4 µM (≈ 5.57 µg/mL); Mean Diameter of Inhibition Zone (E. coli ATCC BAA-196 [4]): 25 ± 0.86 mm; Mean Diameter of Inhibition Zone (S. aureus ATCC 43300 [5]): 27 ± 0.3 mm; Mean Diameter of Inhibition Zone [6]: 26 ± 0.41 mm; Mean Diameter of Inhibition Zone (S. aureus ATCC 33591 [7]): 24 ± 0.32 mm; IC50 [8]: 4.33 ± 0.18 µM; fold relative to trimethoprim ([8]; E. coli DHFR IC50): 1.19 fold; MBC (E. coli ATCC 25922 [9]): 4.66 ± 0.21 µM (≈ 1.94 µg/mL); MIC (E. coli ATCC 25922 [9]): 2.33 ± 0.32 µM (≈ 0.968 µg/mL); MBC (E. coli ATCC 25922 [9]; Escherichia coli, ATCC25922, read-out: MBC): 4.66 µM (≈ 1.94 µg/mL); MIC (E. coli ATCC 25922 [9]; Escherichia coli, ATCC25922, read-out: MIC): 2.33 µM (≈ 0.968 µg/mL); Spleen index (spleen and thymus): 0.018 ± 0.00; Spleen weight (spleen and thymus): 250 ± 0.03 mg; Thymus index (spleen and thymus): 0.532 ± 0.06 mg/g; Thymus weight (spleen and thymus): 15.56 ± 0.54 mg; IC50 (S. aureus DNA gyrase): 18.2 ± 1.18 µM; MFC (C. albicans (ATCC 10231) [10]): 37.60 ± 0.38 µM (≈ 15.6 µg/mL); MFC/MIC (C. albicans (ATCC 10231) [10]): <2; MIC (C. albicans (ATCC 10231) [10]): 18.80 ± 0.65 µM (≈ 7.81 µg/mL); MFC (C. albicans (ATCC 10231) [10]; Candida albicans, ATCC10231, read-out: MFC): 37.6 µM (≈ 15.6 µg/mL); MIC (C. albicans (ATCC 10231) [10]; Candida albicans, ATCC10231, read-out: MIC): 18.8 µM (≈ 7.81 µg/mL); Mean Diameter of the Inhibition Zone (C. albicans (ATCC 10231) [11]): 27 ± 0.50 mm; Mean Diameter of the Inhibition Zone (S. typhi ATCC 6539): 29 ± 0.20 mm; Mean Diameter of the Inhibition Zone (E. faecalis ATCC 29212 [12]): 29 ± 0.17 mm; Mean Diameter of the Inhibition Zone (P. aeruginosa ATCC 27853): 27 ± 0.73 mm; Mean Diameter of the Inhibition Zone [13]: 22 ± 0.11 mm; Mean Diameter of the Inhibition Zone (E. coli ATCC 25922 [14]): 30 ± 0.29 mm; Mean Diameter of the Inhibition Zone (S. aureus ATCC 29213 [15]): 33 ± 0.53 mm; MBC range (MDRB strains): 9.38 to 18.77 µM; MIC range (MDRB strains): 4.69 to 9.38 µM; MBC (E. coli ATCC BAA-196 [16]): 9.38 ± 0.54 µM (≈ 3.9 µg/mL); MIC (E. coli ATCC BAA-196 [16]): 4.69 ± 0.36 µM (≈ 1.95 µg/mL); MBC (E. coli ATCC BAA-196 [16]; Escherichia coli, ATCCBAA196, read-out: MBC): 9.38 µM (≈ 3.9 µg/mL); MIC (E. coli ATCC BAA-196 [16]; Escherichia coli, ATCCBAA196, read-out: MIC): 4.69 µM (≈ 1.95 µg/mL); MBC (S. aureus ATCC 43300 [17]; read-out: MBC): 9.38 ± 0.41 µM (≈ 3.9 µg/mL); MIC (S. aureus ATCC 43300 [17]; read-out: MIC): 4.69 ± 0.25 µM (≈ 1.95 µg/mL); MBC [18]: 18.77 ± 0.61 µM (≈ 7.8 µg/mL); MIC [18]: 9.38 ± 0.49 µM (≈ 3.9 µg/mL); MBC ([18]; Pseudomonas aeruginosa, ATCCBAA2111, read-out: MBC): 18.8 µM (≈ 7.8 µg/mL); MIC ([18]; Pseudomonas aeruginosa, ATCCBAA2111, read-out: MIC): 9.38 µM (≈ 3.9 µg/mL); MBC (S. aureus ATCC 33591 [19]; read-out: MBC): 18.8 ± 0.25 µM (≈ 7.8 µg/mL); MIC (S. aureus ATCC 33591 [19]; read-out: MIC): 9.38 ± 0.32 µM (≈ 3.9 µg/mL); T cells CD4+ [20]: 79.61 ± 0.3%; T cells CD8+ [20]: 27.05 ± 0.5%; MBC ([21]; read-out: MBC): 30.1 ± 0.75 µM (≈ 12.5 µg/mL); MIC ([21]; read-out: MIC): 18.8 ± 0.85 µM (≈ 7.81 µg/mL); MBC (B. subtilis ATCC 6633): 9.38 ± 0.96 µM (≈ 3.9 µg/mL); MIC (B. subtilis ATCC 6633): 4.69 ± 0.98 µM (≈ 1.95 µg/mL); MBC (B. subtilis ATCC 6633; Bacillus subtilis, ATCC6633, read-out: MBC): 9.38 µM (≈ 3.9 µg/mL); MIC (B. subtilis ATCC 6633; Bacillus subtilis, ATCC6633, read-out: MIC): 4.69 µM (≈ 1.95 µg/mL)
